Earlier results on one compound are cited in patent US10314922B2, “Trimaleimide linkers and uses thereof” (NewBio Therapeutics, Inc., priority 2015, dated 2019).

In the data set the test system is human carcinoma lines.

SMILES strings stand for the structures.

For `COc1cccc2c1C(=O)c1c(O)c3c(c(O)c1C2=O)C[C@@](O)(C(=O)CO)C[C@@H]3O[C@H]1C[C@H](N)[C@H](O)[C@H](C)O1` [doxorubicin, Doxorubicin], the IC50 was 100 to 200 nM.
